Reference: ChEMBL document CHEMBL2440076, “New triarylpyrazoles as broad-spectrum anticancer agents: design, synthesis, and biological evaluation” (Eur J Med Chem, 2013)

Columns and labels:
Format in all cases: functional
SK-OV-3 = assay: Growth inhibition of human SKOV3 cells assessed as cell growth at 5X10'-6 M after 48 hrs by sulforhodamine B assay; details: SK-OV-3, 48 h, read-out: Activity
NCI-H226 [1] = assay: Growth inhibition of human NCI-H226 cells assessed as cell growth at 5X10'-9 M after 48 hrs by sulforhodamine B assay; details: NCI-H226, 48 h, read-out: Activity
HCT-15 = assay: Growth inhibition of human HCT15 cells assessed as cell growth at 5X10'-8 M after 48 hrs by sulforhodamine B assay; details: HCT-15, 48 h, read-out: Activity
[2] = Growth inhibition of human Hs 578T cells assessed as cell growth at 5X10'-9 M after 48 hrs by sulforhodamine B assay; details: read-out: Activity
TK-10 [3] = assay: Growth inhibition of human TK10 cells assessed as cell growth at 5X10'-5 M after 48 hrs by sulforhodamine B assay; details: TK-10, 48 h, read-out: Activity
SF-539 = assay: Growth inhibition of human SF539 cells assessed as cell growth at 5X10'-9 M after 48 hrs by sulforhodamine B assay; details: SF-539, 48 h, read-out: Activity
DU-145 = assay: Growth inhibition of human DU145 cells assessed as cell growth at 5X10'-7 M after 48 hrs by sulforhodamine B assay; details: DU-145, 48 h, read-out: Activity
A498 = assay: Growth inhibition of human A498 cells assessed as cell growth at 5X10'-6 M after 48 hrs by sulforhodamine B assay; details: A498, 48 h, read-out: Activity
HL-60(TB) [4] = assay: Growth inhibition of human HL-60(TB) cells assessed as cell growth at 5X10'-8 M after 48 hrs by sulforhodamine B assay; details: HL-60, 48 h, read-out: Activity
SF-268 [5] = assay: Growth inhibition of human SF268 cells assessed as cell growth at 5X10'-9 M after 48 hrs by sulforhodamine B assay; details: SF-268, 48 h, read-out: Activity
CAKI-1 = assay: Growth inhibition of human CAKI-1 cells assessed as cell growth at 5X10'-7 M after 48 hrs by sulforhodamine B assay; details: CAKI-1, 48 h, read-out: Activity
OVCAR-4 [6] = assay: Growth inhibition of human OVCAR4 cells assessed as cell growth at 5X10'-7 M after 48 hrs by sulforhodamine B assay; details: OVCAR-4, 48 h, read-out: Activity
IGROV-1 = assay: Growth inhibition of human IGROV1 cells assessed as cell growth at 5X10'-6 M after 48 hrs by sulforhodamine B assay; details: IGROV-1, 48 h, read-out: Activity
HL-60(TB) [7] = assay: Growth inhibition of human HL-60(TB) cells assessed as cell growth at 5X10'-7 M after 48 hrs by sulforhodamine B assay; details: HL-60, 48 h, read-out: Activity
SNB-75 [8] = assay: Growth inhibition of human SNB75 cells assessed as cell growth at 5X10'-7 M after 48 hrs by sulforhodamine B assay; details: SNB-75, 48 h, read-out: Activity
OVCAR-8 = assay: Growth inhibition of human OVCAR8 cells assessed as cell growth at 5X10'-6 M after 48 hrs by sulforhodamine B assay; details: OVCAR-8, 48 h, read-out: Activity
NCI-H522 = assay: Growth inhibition of human NCI-H522 cells assessed as cell growth at 5X10'-8 M after 48 hrs by sulforhodamine B assay; details: NCI-H522, 48 h, read-out: Activity
SK-MEL-28 = assay: Growth inhibition of human SK-MEL-28 cells assessed as cell growth at 5X10'-7 M after 48 hrs by sulforhodamine B assay; details: SK-MEL-28, 48 h, read-out: Activity
SN12C = assay: Growth inhibition of human SN12C cells assessed as cell growth at 5X10'-8 M after 48 hrs by sulforhodamine B assay; details: read-out: Activity
SNB-75 [9] = assay: Growth inhibition of human SNB75 cells assessed as cell growth at 5X10'-8 M after 48 hrs by sulforhodamine B assay; details: SNB-75, 48 h, read-out: Activity
SF-268 [10] = assay: Growth inhibition of human SF268 cells assessed as cell growth at 5X10'-6 M after 48 hrs by sulforhodamine B assay; details: SF-268, 48 h, read-out: Activity
TK-10 [11] = assay: Growth inhibition of human TK10 cells assessed as cell growth at 5X10'-7 M after 48 hrs by sulforhodamine B assay; details: TK-10, 48 h, read-out: Activity
[12] = Growth inhibition of human HCC2998 cells assessed as cell growth at 5X10'-9 M after 48 hrs by sulforhodamine B assay; details: HCC 2998, 48 h, read-out: Activity
HT-29 [13] = assay: Growth inhibition of human HT-29 cells assessed as cell growth at 5X10'-5 M after 48 hrs by sulforhodamine B assay; details: HT-29, 48 h, read-out: Activity
RXF 393 = assay: Growth inhibition of human RXF393 cells assessed as cell growth at 5X10'-6 M after 48 hrs by sulforhodamine B assay; details: RXF 393, 48 h, read-out: Activity
SR = assay: Growth inhibition of human SR cells assessed as cell growth at 5X10'-9 M after 48 hrs by sulforhodamine B assay; details: read-out: Activity
OVCAR-4 [14] = assay: Growth inhibition of human OVCAR4 cells assessed as cell growth at 5X10'-9 M after 48 hrs by sulforhodamine B assay; details: OVCAR-4, 48 h, read-out: Activity
NCI-H226 [15] = assay: Growth inhibition of human NCI-H226 cells assessed as cell growth at 5X10'-6 M after 48 hrs by sulforhodamine B assay; details: NCI-H226, 48 h, read-out: Activity
MOLT-4 = assay: Growth inhibition of human MOLT4 cells assessed as cell growth at 5X10'-6 M after 48 hrs by sulforhodamine B assay; details: MOLT-4, 48 h, read-out: Activity
U-251 = assay: Growth inhibition of human U251 cells assessed as cell growth at 5X10'-5 M after 48 hrs by sulforhodamine B assay; details: U-251, 48 h, read-out: Activity
SK-MEL-2 [16] = assay: Growth inhibition of human SK-MEL-2 cells assessed as cell growth at 5X10'-5 M after 48 hrs by sulforhodamine B assay; details: SK-MEL-2, 48 h, read-out: Activity
[17] = Growth inhibition of human NCI-ADR-RES cells assessed as cell growth at 5X10'-8 M after 48 hrs by sulforhodamine B assay; details: read-out: Activity
OVCAR-5 = assay: Growth inhibition of human OVCAR5 cells assessed as cell growth at 5X10'-7 M after 48 hrs by sulforhodamine B assay; details: OVCAR-5, 48 h, read-out: Activity
COLO 205 = assay: Growth inhibition of human COLO205 cells assessed as cell growth at 5X10'-6 M after 48 hrs by sulforhodamine B assay; details: COLO 205, 48 h, read-out: Activity
HT-29 [18] = assay: Growth inhibition of human HT-29 cells assessed as cell growth at 5X10'-8 M after 48 hrs by sulforhodamine B assay; details: HT-29, 48 h, read-out: Activity
UACC-257 = assay: Growth inhibition of human UACC257 cells assessed as cell growth at 5X10'-6 M after 48 hrs by sulforhodamine B assay; details: UACC-257, 48 h, read-out: Activity
SK-MEL-2 [19] = assay: Growth inhibition of human SK-MEL-2 cells assessed as cell growth at 5X10'-7 M after 48 hrs by sulforhodamine B assay; details: SK-MEL-2, 48 h, read-out: Activity

SMILES	growth at 5 µM (SK-OV-3)	growth at 0.005 µM (NCI-H226 [1])	growth at 0.05 µM (HCT-15)	growth at 0.005 µM [2]	growth at 50 µM (TK-10 [3])	growth at 0.005 µM (SF-539)	growth at 0.5 µM (DU-145)	growth at 5 µM (A498)	growth at 0.05 µM (HL-60(TB) [4])	growth at 0.005 µM (SF-268 [5])	growth at 0.5 µM (CAKI-1)	growth at 0.5 µM (OVCAR-4 [6])	growth at 5 µM (IGROV-1)	growth at 0.5 µM (HL-60(TB) [7])	growth at 0.5 µM (SNB-75 [8])	growth at 5 µM (OVCAR-8)	growth at 0.05 µM (NCI-H522)	growth at 0.5 µM (SK-MEL-28)	growth at 0.05 µM (SN12C)	growth at 0.05 µM (SNB-75 [9])	also measured
COc1cc(-c2nn(-c3cccc(NC(=O)Nc4cc(C(F)(F)F)cc(C(F)(F)F)c4)c3)cc2-c2ccncc2)ccc1Cl	-39%	97%	97%	96%	-86%	88%	86%	-43%	98%	100%	80%	73%	-42%	75%	81%	-6%	103%	89%	91%	90%	growth at 5 µM (SF-268 [10]): -40%; growth at 0.5 µM (TK-10 [11]): 78%; growth at 0.005 µM [12]: 102%; growth at 50 µM (HT-29 [13]): -77%; growth at 5 µM (RXF 393): -51%; growth at 0.005 µM (SR): 102%; growth at 0.005 µM (OVCAR-4 [14]): 95%; growth at 5 µM (NCI-H226 [15]): 7%; growth at 5 µM (MOLT-4): -4%; growth at 50 µM (U-251): -78%; growth at 50 µM (SK-MEL-2 [16]): -84%; growth at 0.05 µM [17]: 106%; growth at 0.5 µM (OVCAR-5): 82%; growth at 5 µM (COLO 205): -94%; growth at 0.05 µM (HT-29 [18]): 108%; growth at 5 µM (UACC-257): -40%; growth at 0.5 µM (SK-MEL-2 [19]): 105%
COc1cc(-c2nn(-c3cccc(NC(=O)Nc4ccc(Cl)c(Cl)c4)c3)cc2-c2ccncc2)ccc1Cl	12%	98%	95%	99%	-1%	94%	90%	-3%	114%	100%	84%	81%	-17%	98%	74%	-12%	101%	91%	94%	83%	growth at 5 µM (SF-268 [10]): 8%; growth at 0.5 µM (TK-10 [11]): 83%; growth at 0.005 µM [12]: 101%; growth at 50 µM (HT-29 [13]): -19%; growth at 5 µM (RXF 393): -34%; growth at 0.005 µM (SR): 99%; growth at 0.005 µM (OVCAR-4 [14]): 96%; growth at 5 µM (NCI-H226 [15]): 8%; growth at 5 µM (MOLT-4): -4%; growth at 50 µM (U-251): -49%; growth at 50 µM (SK-MEL-2 [16]): -59%; growth at 0.05 µM [17]: 106%; growth at 0.5 µM (OVCAR-5): 89%; growth at 5 µM (COLO 205): -89%; growth at 0.05 µM (HT-29 [18]): 102%; growth at 5 µM (UACC-257): -22%; growth at 0.5 µM (SK-MEL-2 [19]): 107%
